# Experimental data from patent US7235375B2, “Organic anion transport proteins” (Bristol-Myers Squibb Company, priority 1999, dated 2007).
# Like-named read-outs stand apart in the source and are kept apart here.
# Biological target: T1, OATP2 (Homo sapiens, UniProt Q9Y6L6, N130D)
# T1 sequence (Q9Y6L6 1-691 N130D): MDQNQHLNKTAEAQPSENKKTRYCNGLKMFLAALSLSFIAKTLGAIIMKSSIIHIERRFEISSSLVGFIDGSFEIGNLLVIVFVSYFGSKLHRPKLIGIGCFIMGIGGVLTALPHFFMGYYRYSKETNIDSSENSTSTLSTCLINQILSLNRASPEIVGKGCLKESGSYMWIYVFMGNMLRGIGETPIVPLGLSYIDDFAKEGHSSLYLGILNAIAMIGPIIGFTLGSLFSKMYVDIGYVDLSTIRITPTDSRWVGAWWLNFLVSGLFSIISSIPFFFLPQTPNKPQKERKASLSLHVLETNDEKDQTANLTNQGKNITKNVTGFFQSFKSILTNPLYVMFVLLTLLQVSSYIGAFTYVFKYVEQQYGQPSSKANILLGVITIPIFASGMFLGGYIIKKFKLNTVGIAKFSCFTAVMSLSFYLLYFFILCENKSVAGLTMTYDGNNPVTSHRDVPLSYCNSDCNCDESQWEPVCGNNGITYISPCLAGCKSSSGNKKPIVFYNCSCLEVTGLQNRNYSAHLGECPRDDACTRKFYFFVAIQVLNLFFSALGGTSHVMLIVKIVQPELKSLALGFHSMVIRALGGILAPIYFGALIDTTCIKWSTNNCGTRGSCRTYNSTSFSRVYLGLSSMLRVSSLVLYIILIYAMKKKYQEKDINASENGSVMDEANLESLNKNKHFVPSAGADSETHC
# Conditions: 293EBNA (HEK293 derivative) cells transfected with pCEP-OATP2 or empty vector (MOCK), uptake for 5 minutes, absence and presence of excess unlabeled substrate, FIG. 2
# Method: An assay for the measurement of OATP activity is performed as follows: HEK293 cells are plated in Dulbeccos Modified Eagles Medium (DMEM) plus 10% fetal bovine serum plus penicillin and streptomycin, in poly-d-lysine coated dishes and co-transfected with OATP transporter expression plasmids using Lipofectamine Plus (Life Technologies, Inc.). The cells and media are assayed for substrate transport 24 hours later. Alternatively, cell lines engineered to stably express OATPs could be plated and assayed directly without transfection. To measure transport, media is removed and monolayers are assayed in triplicate by washing once in serum-free DMEM and adding the same medium containing [^3H]-substrate alone or in the presence of various concentrations of unlabeled test compounds. […] The transport activity is expressed as moles of substrate transported into cells/mg of cell protein/minute. […]
# 293EBNA cells (Invitrogen, Inc.), an HEK293 cell derivative, were transiently transfected with the OATP2 expression vector pCEP-OATP2, or the pCEP4 vector alone (MOCK) and the transport of [^3H]-labeled substrates was determined 24 hours later. […] The uptake of radiolabeled substrate for 5 minutes into cells transfected with pCEP-OATP2 or empty vector (MOCK) was determined in the absence (solid bars) and presence (open bars) of excess unlabeled substrate.
compound,measurement,setting,value
NC(Cc1cc(I)c(Oc2cc(I)c(O)c(I)c2)c(I)c1)C(=O)O (centres unmarked) [thyroid hormone (T4)],transport (specific uptake of radiolabeled substrate) by OATP2,,specific uptake
same,transport (specific uptake of radiolabeled substrate) by OATP2,listed as thyroid hormone (T),transports
